Legend:
[1] = Stability in Hanks' balanced salt solution (HBSS); type: physicochemical; details: 37° C., relative to initial conc. in HBSS = 100.00
Protocol: (§1) The stability of the NAP derivatives prepared by EXAMPLE 1 was measured with the system of human colon cancer cell, Caco-2 cell. Caco-2 cells (1×10^5 cells) were first seeded into a polycarbonate film on the upper layer of a 12-well Transwell and incubated for 18 to 26 days at 37° C. The TEER of the Caco-2 cell monolayer was measured over 350 Ω×cm^2. The stability of the NAP derivatives in the Hanks' balanced salt solutions (HBSS) was measured by the concentration changes of NAP and the NAP derivatives incubated in the HBSS at 37° C. for 4 hours. The stability of the NAP derivatives in the Caco-2 cell system was measured by the procedure described below. NAP and the NAP derivatives in the HBSS were added into the upper layer of the Caco-2 cell-seeded Transwell. After 4-hour incubation, the concentration of NAP and the NAP derivatives in the upper and lower layers was measured and analyzed in comparison with the initial concentration (500 μM) by reverse HPLC at 210 nm.

Caco-2 cell = test: Stability in the Caco-2 cell system; type: in vitro ADME, human; details: 4-hour incubation in Caco-2 Transwell; relative to initial conc. = 100.00 (500 μM)
Protocol: as §1

Compound | Conc. after 4-hour in HBSS [1] | Conc. after 4-hour in Caco-2 cells (Caco-2 cell)
CCCCCCCCC(=O)N[C@@H](CC(N)=O)C(=O)N[C@@H](C)C(=O)N1CCC[C@H]1C(=O)N[C@H](C(=O)N[C@@H](CO)C(=O)N[C@H](C(=O)N1CCC[C@H]1C(=O)N[C@@H](CCC(N)=O)C(=O)O)[C@@H](C)CC)C(C)C [BMEC-NAP0107, C8H17CO-NAPVSIPQ-OH] | 98.74 | 24.21
CCCCCCCCOC(=O)N[C@@H](CC(N)=O)C(=O)N[C@@H](C)C(=O)N1CCC[C@H]1C(=O)N[C@H](C(=O)N[C@@H](CO)C(=O)N[C@H](C(=O)N1CCC[C@H]1C(=O)N[C@@H](CCC(N)=O)C(=O)O)[C@@H](C)CC)C(C)C [BMEC-NAP0405, nOct-OCO-NAPVSIPQ-OH] | 99.66 | 17.11
CCCCCCCCCCCCOC(=O)N[C@@H](CC(N)=O)C(=O)N[C@@H](C)C(=O)N1CCC[C@H]1C(=O)N[C@H](C(=O)N[C@@H](CO)C(=O)N[C@H](C(=O)N1CCC[C@H]1C(=O)N[C@@H](CCC(N)=O)C(=O)O)[C@@H](C)CC)C(C)C [BMEC-NAP0406, nDod-OCO-NAPVSIPQ-OH] | 130.04 | 97.75
CC[C@H](C)[C@H](NC(=O)[C@H](CO)NC(=O)[C@@H](NC(=O)[C@@H]1CCCN1C(=O)[C@H](C)NC(=O)[C@H](CC(N)=O)NC(=O)c1ccc(-c2ccccc2)cc1)C(C)C)C(=O)N1CCC[C@H]1C(=O)N[C@@H](CCC(N)=O)C(=O)O [BMEC-NAP0703, 4-Phenylbenzoyl-NAPVSIPQ-OH] | 95.73 | 88.79
CC[C@H](C)[C@H](NC(=O)[C@H](CO)NC(=O)[C@@H](NC(=O)[C@@H]1CCCN1C(=O)[C@H](C)NC(=O)[C@H](CC(N)=O)NC(=O)OCC1c2ccccc2-c2ccccc21)C(C)C)C(=O)N1CCC[C@H]1C(=O)N[C@@H](CCC(N)=O)C(N)=O [BMEC-NAP0806, Fmoc-NAPVSIPQ-NH2] | 100.00 | 76.24
Adipyl-NAPVSIPQ-OH [BMEC-NAP0102] | 99.95 | 60.72
H-NAPISIPAN-OH [BMEC-NAP0608, H-NAPISIPAN-OH] | 110.89 | 30.58

Other lines, results leading:

Conc. after 4-hour in HBSS [1] | Conc. after 4-hour in Caco-2 cells (Caco-2 cell) | Compound
97.76 | 56.02 | CCCC(=O)N[C@@H](CC(N)=O)C(=O)N[C@@H](C)C(=O)N1CCC[C@H]1C(=O)N[C@H](C(=O)N[C@@H](CO)C(=O)N[C@H](C(=O)N1CCC[C@H]1C(=O)N[C@@H](CCC(N)=O)C(=O)O)[C@@H](C)CC)C(C)C [BMEC-NAP0101, Butyryl-NAPVSIPQ-OH]
98.36 | 49.86 | CCCCC(=O)N[C@@H](CC(N)=O)C(=O)N[C@@H](C)C(=O)N1CCC[C@H]1C(=O)N[C@H](C(=O)N[C@@H](CO)C(=O)N[C@H](C(=O)N1CCC[C@H]1C(=O)N[C@@H](CCC(N)=O)C(=O)O)[C@@H](C)CC)C(C)C [BMEC-NAP0105, C4H9CO-NAPVSIPQ-OH]
102.05 | 26.74 | CCCCCCC(=O)N[C@@H](CC(N)=O)C(=O)N[C@@H](C)C(=O)N1CCC[C@H]1C(=O)N[C@H](C(=O)N[C@@H](CO)C(=O)N[C@H](C(=O)N1CCC[C@H]1C(=O)N[C@@H](CCC(N)=O)C(=O)O)[C@@H](C)CC)C(C)C [BMEC-NAP0106, C6H13CO-NAPVSIPQ-OH]
98.49 | 29.05 | CCCCOC(=O)N[C@@H](CC(N)=O)C(=O)N[C@@H](C)C(=O)N1CCC[C@H]1C(=O)N[C@H](C(=O)N[C@@H](CO)C(=O)N[C@H](C(=O)N1CCC[C@H]1C(=O)N[C@@H](CCC(N)=O)C(=O)O)[C@@H](C)CC)C(C)C [BMEC-NAP0403, nBu-OCO-NAPVSIPQ-OH]
98.80 | 94.19 | CC[C@H](C)[C@H](NC(=O)[C@H](COP(=O)(O)O)NC(=O)[C@@H](NC(=O)[C@@H]1CCCN1C(=O)[C@H](C)NC(=O)[C@@H](N)CC(N)=O)C(C)C)C(=O)N1CCC[C@H]1C(=O)N[C@@H](CCC(N)=O)C(=O)O [BMEC-NAP9902, NH2-NAPVS(OPO3H2)IPQ-OH]
